Assays:
[1] = system: C. albicans group I intron precursor; experiment: Inhibition of C. albicans group I intron precursor self-splicing; assay type: biochemical, Candida albicans; conditions: read-out: IC50 for inhibition of precursor self-splicing; 2 mM Mg2+ (H2Mg buffer: 50 mM Na HEPES pH 7.5, 135 mM KCl), 1 mM nucleotide bulk yeast tRNA competitor, 100 µM GMP; four parameter logistic fit
Solubility in water = assay type: physicochemical

| IC50 [1] [µM] | SMILES | solubility in water (Solubility in water) |
| --- | --- | --- |
| 200 ± 35 | N=C(N)c1ccc(OCCCCCOc2ccc(C(=N)N)cc2)cc1 [Pentamidine, pentamidine] | – |
| > 5000 | c1ccc(Cn2cc(CN(Cc3cn(Cc4ccccc4)nn3)Cc3cn(Cc4ccccc4)nn3)nn2)cc1 [TBTA, tris(benzyltriazolylmethyl)amine] | – |
| – | NCCc1c[nH]c2ccccc12 [Compound 4, tryptamine] | not soluble in water |
